The record followed here is patent US8455534B2, “Estrogen receptor modulators and uses thereof” (Aragon Pharmaceuticals, Inc., priority 2010, dated 2013).

One experiment concerns MCF-7 cells. In words: Breast Cancer Cell Viability Assay (MCF-7, CellTiter-Glo). The settings on record: 5 days' compound exposure. In kind it is cell-based. An outline of the steps:
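Eleven-point semilog compound series, final 0.3-0.000003 μM, added to overnight-adhered MCF-7 cells (320/well; RPMI, 10% FBS, 20 mM HEPES) for 5 days. Viability read by CellTiter-Glo luminescence, background from medium without cells subtracted, expressed relative to untreated cells.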
(Cellular ATP, detected with luciferase, serves as a proxy for viable cell number.)

The next experiment addresses T1, ER-α (Homo sapiens, UniProt P03372).
T1 sequence (P03372 1-595): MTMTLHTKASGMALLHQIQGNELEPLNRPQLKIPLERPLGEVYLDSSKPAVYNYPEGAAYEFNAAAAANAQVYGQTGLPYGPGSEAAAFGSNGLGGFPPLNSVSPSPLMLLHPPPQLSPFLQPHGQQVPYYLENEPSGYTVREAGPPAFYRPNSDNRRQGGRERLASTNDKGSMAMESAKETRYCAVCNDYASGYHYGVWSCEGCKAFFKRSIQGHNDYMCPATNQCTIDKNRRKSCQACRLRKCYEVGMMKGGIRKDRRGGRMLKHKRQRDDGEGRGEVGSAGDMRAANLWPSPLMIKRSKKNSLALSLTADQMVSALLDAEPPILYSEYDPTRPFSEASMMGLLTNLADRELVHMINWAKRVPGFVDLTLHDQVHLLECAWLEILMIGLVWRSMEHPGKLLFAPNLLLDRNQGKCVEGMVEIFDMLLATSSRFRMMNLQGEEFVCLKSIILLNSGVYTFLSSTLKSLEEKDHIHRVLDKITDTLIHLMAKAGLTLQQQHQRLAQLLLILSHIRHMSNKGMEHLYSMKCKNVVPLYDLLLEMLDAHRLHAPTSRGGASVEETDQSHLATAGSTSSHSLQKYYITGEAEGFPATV
The experiment is described as follows: Breast Cancer Cell ER-α In Cell Western Assay (SP1). The experiment is classed as cell-based. To be noted: MCF-7 cells, SP1 antibody, 4 or 24 hr post compound addition. In outline:
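ER-α protein levels measured by in-cell western with SP1 antibody, ratioed to DRAQ5 DNA signal and given as percent of untreated controls. Compounds added at 0.3–0.000003 μM final (eleven semilog points) to adherent MCF-7 cells in stripped serum; exposure 4 or 24 h before fixation.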

One may read the IC50 as the concentration needed to halve the response being measured. The low end stands for greater potency, the high end for weaker potency. `CC/C(=C(/c1ccc(/C=C/C(=O)O)cc1)c1ccc2c(cnn2C(F)F)c1)c1ccc(F)cc1Cl` [Compound 148, (E)-3-(4-((E)-2-(2-Chloro-4-fluorophenyl)-1-(1-(difluoromethyl)-1H-indazol-5-yl)but-1-en-1-yl)phenyl)acrylic acid]: the “MCF7 Viability Assay Max Response” value in the experiment with MCF-7 cells is “++ (++ = a single % value ≧ 40%)”. Besides, the IC50 in the experiment on MCF-7 cells (Homo sapiens, MCF7, 120 h) is at most 0.1 µM. Moreover, the Emax at ER-α (MCF7, read-out: ER-α In Cell Western Assay (SP1) Max Response) was at least 40%. For the same compound, the DC50 at ER-α (read-out: ER-α In Cell Western Assay (SP1) IC50) was at most 0.1 µM.
